Among the data in patent US20090176811A1, “Substituted 5,6,7,8-Tetrahydro-pyrido[4,3-d]pyrimidine-2-yl Compounds and 5,6,7,8-Tetrahydro-quinazoline-2-yl Compounds” (GRUENENTHAL GmbH, priority 2004, published 2009) are BTX inhibition values, retold here.

This assay concerns batrachotoxin (BTX) binding site of the sodium channel. Kind of assay: Affinity for the batrachotoxin (BTX) binding site of the sodium channel ([3H]-Batrachotoxinin A20 benzoate, rat cerebrocortex synaptosomes). The settings on record: [3H]-Batrachotoxinin A20 benzoate 10 nM, test concentration not given.
In turn, `Cc1cccc(C(=O)Nc2ncc3c(n2)CCN(S(=O)(=O)c2sc(C)nc2C)C3)c1` [Example 68, N-[6-(2,4-dimethyl-thiazole-5-sulfonyl)-5,6,7,8-tetrahydro-pyrido[4,3-d]pyrimidin-2-yl]-3-methyl-benzamide] yielded a BTX inhibition of 35. In turn, `O=C(Nc1ncc2c(n1)CCN(C(=O)c1ccc3ccccc3c1)C2)c1ccc(Cl)cc1` [Example 69] gave a BTX inhibition of 64. With `O=C(Nc1ncc2c(n1)CCN(S(=O)(=O)c1ccc(Cl)cc1)C2)c1ccc(Cl)c(Cl)c1` [Example 71, 3,4-dichloro-N-[6-(4-chloro-benzenesulfonyl)-5,6,7,8-tetrahydro-pyrido[4,3-d]pyrimidin-2-yl]-benzamide] the figure was 69. In turn, `O=C(Nc1ncc2c(n1)CCN(S(=O)(=O)c1cccs1)C2)c1ccc(F)c(F)c1` [Example 72, 3,4-difluoro-N-[6-(thiophene-2-sulfonyl)-5,6,7,8-tetrahydro-pyrido[4,3-d]pyrimidin-2-yl]-benzamide] had a BTX inhibition of 31. With `CCc1ccc(C(=O)Nc2ncc3c(n2)CCN(C(=O)c2ccc(-n4cccn4)cc2)C3)cc1` [Example 74, 4-ethyl-N-[6-(4-pyrazol-1-yl-benzoyl)-5,6,7,8-tetrahydro-pyrido[4,3-d]pyrimidin-2-yl]-benzamide] the figure was 66; with `COc1ccccc1C(=O)Nc1ncc2c(n1)CCN(C(=O)c1cc(-c3ccc(Cl)cc3)oc1C)C2` [Example 78, N-{6-[5-(4-chloro-phenyl)-2-methyl-furan-3-carbonyl]-5,6,7,8-tetrahydro-pyrido[4,3-d]pyrimidin-2-yl}-2-methoxy-benzamide], 31.

Consider `Cc1nc(C)c(S(=O)(=O)N2CCc3nc(NC(=O)c4ccc(Cl)cc4)ncc3C2)s1` [Example 79, 4-chloro-N-[6-(2,4-dimethyl-thiazole-5-sulfonyl)-5,6,7,8-tetrahydro-pyrido[4,3-d]pyrimidin-2-yl]-benzamide], for which the BTX inhibition stood at 34.

Regarding `CCOc1ccccc1C(=O)Nc1ncc2c(n1)CCN(S(=O)(=O)c1ccccc1C(=O)OC)C2` [Example 82, 2-[2-(2-ethoxy-benzoylamino)-7,8-dihydro-5H-pyrido[4,3-d]pyrimidine-6-sulfonyl]-benzoic acid methyl ester], the BTX inhibition worked out at 38. With `COc1ccccc1C(=O)Nc1ncc2c(n1)CCN(S(=O)(=O)c1ccc(Cl)s1)C2` [Example 86, N-[6-(5-chloro-thiophene-2-sulfonyl)-5,6,7,8-tetrahydro-pyrido[4,3-d]pyrimidin-2-yl]-2-methoxy-benzamide] the figure was 62; with `Cc1ccc(C(=O)N2CCc3nc(NC(=O)c4ccc(C(C)(C)C)cc4)ncc3C2)cc1[N+](=O)[O-]` [Example 92, 4-tert-butyl-N-[6-(4-methyl-3-nitro-benzoyl)-5,6,7,8-tetrahydro-pyrido[4,3-d]pyrimidin-2-yl]-benzamide], 75; with `O=C(CCc1ccccc1)NC1CCc2nc(NC(=O)c3ccc(F)cc3)ncc2C1` (stereo not shown) [Example 94, 4-fluoro-N-[6-(3-phenyl-propionylamino)-5,6,7,8-tetrahydro-quinazolin-2-yl]-benzamide], 47.

Compound `Cc1cc(C)c(S(=O)(=O)N2CCc3nc(NC(=O)c4ccc(Cl)c(Cl)c4)ncc3C2)c(C)c1` [Example 95, 3,4-dichloro-N-[6-(2,4,6-trimethyl-benzenesulfonyl)-5,6,7,8-tetrahydro-pyrido[4,3-d]pyrimidin-2-yl]-benzamide] gave a BTX inhibition of 77. With `Cc1cc(C)c(C)c(S(=O)(=O)N2CCc3nc(NC(=O)c4cccs4)ncc3C2)c1C` [Example 99, thiophene-2-carboxylic acid [6-(2,3,5,6-tetramethyl-benzenesulfonyl)-5,6,7,8-tetrahydro-pyrido[4,3-d]pyrimidin-2-yl]-amide] the figure was 78.

In turn, `CCc1ccc(C(=O)Nc2ncc3c(n2)CCN(C(=O)c2ccc(Cl)c(Cl)c2)C3)cc1` [Example 101, N-[6-(3,4-dichloro-benzoyl)-5,6,7,8-tetrahydro-pyrido[4,3-d]pyrimidin-2-yl]-4-ethyl-benzamide] returned a BTX inhibition of 68.

Compound `Cc1ccc(C(=O)Nc2ncc3c(n2)CCN(S(=O)(=O)c2cc(F)ccc2C)C3)cc1` [Example 107, N-[6-(5-fluoro-2-methyl-benzenesulfonyl)-5,6,7,8-tetrahydro-pyrido[4,3-d]pyrimidin-2-yl]-4-methyl-benzamide] displayed a BTX inhibition of 73.

The compound `O=C(Nc1ncc2c(n1)CCN(C(=O)c1sc3ccccc3c1Cl)C2)c1cccs1` [Example 110, thiophene-2-carboxylic acid [6-(3-chloro-benzo[b]thiophene-2-carbonyl)-5,6,7,8-tetrahydro-pyrido[4,3-d]pyrimidin-2-yl]-amide] had a BTX inhibition of 40. As to `O=C(Nc1ncc2c(n1)CCN(C(=O)c1ccc(Cl)c(Cl)c1)C2)c1ccccc1F` [Example 113, N-[6-(3,4-dichloro-benzoyl)-5,6,7,8-tetrahydro-pyrido[4,3-d]pyrimidin-2-yl]-2-fluoro-benzamide], the BTX inhibition is given as 38.

In the case of `CCc1ccc(C(=O)Nc2ncc3c(n2)CCN(S(=O)(=O)c2ccccc2Cl)C3)cc1` [Example 114, N-[6-(2-chloro-benzenesulfonyl)-5,6,7,8-tetrahydro-pyrido[4,3-d]pyrimidin-2-yl]-4-ethyl-benzamide], the BTX inhibition is recorded as 82.

`Cc1cc(C(=O)NC2CCc3nc(NC(=O)c4cccs4)ncc3C2)ccc1Br` (stereo not shown) [Example 115, thiophene-2-carboxylic acid [6-(4-bromo-3-methyl-benzoylamino)-5,6,7,8-tetrahydro-quinazolin-2-yl]-amide] returned a BTX inhibition of 82. In turn, `Cc1cccc(C(=O)Nc2ncc3c(n2)CCN(S(=O)(=O)c2cccc(C)c2)C3)c1` [Example 116, 3-methyl-N-[6-(toluene-3-sulfonyl)-5,6,7,8-tetrahydro-pyrido[4,3-d]pyrimidin-2-yl]-benzamide] displayed a BTX inhibition of 53.

Regarding `O=C(Nc1ncc2c(n1)CCN(S(=O)(=O)c1ccc(Cl)s1)C2)c1cccc2ccccc12` [Example 117, naphthalene-1-carboxylic acid [6-(5-chloro-thiophene-2-sulfonyl)-5,6,7,8-tetrahydro-pyrido[4,3-d]pyrimidin-2-yl]-amide], the BTX inhibition amounted to 37. For the compound `O=C(Nc1ncc2c(n1)CCN(C(=O)c1sc3ccccc3c1Cl)C2)c1ccccc1` [Example 120, N-[6-(3-chloro-benzo[b]thiophene-2-carbonyl)-5,6,7,8-tetrahydro-pyrido[4,3-d]pyrimidin-2-yl]-benzamide], the BTX inhibition amounted to 48.

With `CCc1ccc(C(=O)Nc2ncc3c(n2)CCN(S(=O)(=O)c2ccsc2)C3)cc1` [Example 121, 4-ethyl-N-[6-(thiophene-3-sulfonyl)-5,6,7,8-tetrahydro-pyrido[4,3-d]pyrimidin-2-yl]-benzamide], the BTX inhibition worked out at 57.

The compound `O=C(Nc1ncc2c(n1)CCN(S(=O)(=O)c1cccc(Br)c1)C2)c1cccc(Cl)c1` [Example 125, N-[6-(3-bromo-benzenesulfonyl)-5,6,7,8-tetrahydro-pyrido[4,3-d]pyrimidin-2-yl]-3-chloro-benzamide] yielded a BTX inhibition of 66. With `O=C(Nc1ncc2c(n1)CCN(C(=O)Cc1ccc(Cl)cc1)C2)c1ccc(Cl)c(Cl)c1` [Example 126, 3,4-dichloro-N-{6-[2-(4-chloro-phenyl)-acetyl]-5,6,7,8-tetrahydro-pyrido[4,3-d]pyrimidin-2-yl}-benzamide] the figure was 70; with `O=C(Nc1ncc2c(n1)CCN(C(=O)c1c(F)cccc1Cl)C2)c1cccc(Cl)c1` [Example 127, 3-chloro-N-[6-(2-chloro-6-fluoro-benzoyl)-5,6,7,8-tetrahydro-pyrido[4,3-d]pyrimidin-2-yl]-benzamide], 30; with `CCCCCC(=O)NC1CCc2nc(NC(=O)c3ccc(F)cc3)ncc2C1` (stereo not shown) [Example 128, 4-fluoro-N-(6-hexanoylamino-5,6,7,8-tetrahydro-quinazolin-2-yl)-benzamide], 33. With `COc1cccc(C(=O)Nc2ncc3c(n2)CCN(S(=O)(=O)c2cc(Br)ccc2OC)C3)c1` [Example 129, N-[6-(5-bromo-2-methoxy-benzenesulfonyl)-5,6,7,8-tetrahydro-pyrido[4,3-d]pyrimidin-2-yl]-3-methoxy-benzamide] the figure was 76; with `O=C(Nc1ncc2c(n1)CCN(C(=O)CCC1CCCC1)C2)c1ccncc1` [Example 132, N-[6-(3-cyclopentyl-propionyl)-5,6,7,8-tetrahydro-pyrido[4,3-d]pyrimidin-2-yl]-isonicotinamide], 72; with `CCCC(=O)Nc1ncc2c(n1)CCC(NC(=O)c1ccc(Cc3ccccc3)o1)C2` (stereo not shown) [Example 133, 5-benzyl-furan-2-carboxylic acid (2-butyrylamino-5,6,7,8-tetrahydro-quinazolin-6-yl)-amide], 39. With `O=C(Nc1ncc2c(n1)CCN(S(=O)(=O)c1ccc(OC(F)(F)F)cc1)C2)c1ccc(Cl)c(Cl)c1` [Example 134, 3,4-dichloro-N-[6-(4-trifluoromethoxy-benzenesulfonyl)-5,6,7,8-tetrahydro-pyrido[4,3-d]pyrimidin-2-yl]-benzamide], the BTX inhibition is 64. Regarding `Cc1oc(-c2ccccc2)cc1C(=O)N1CCc2nc(NC(=O)c3ccccc3F)ncc2C1` [Example 137, 2-fluoro-N-[6-(2-methyl-5-phenyl-furan-3-carbonyl)-5,6,7,8-tetrahydro-pyrido[4,3-d]pyrimidin-2-yl]-benzamide], the BTX inhibition was found to be 43. With `CC(C)C(NC(=O)OCC1c2ccccc2-c2ccccc21)C(=O)NC1CCc2nc(NC(=O)c3cccs3)ncc2C1` (stereo not shown) [Example 139, (2-methyl-1-{2-[(thiophene-2-carbonyl)-amino]-5,6,7,8-tetrahydro-quinazolin-6-ylcarbamoyl}-propyl)-carbamic acid 9H-fluoren-9-ylmethyl ester] the figure was 62. With `O=C(Nc1ncc2c(n1)CCN(C(=O)C1CCc3ccccc3C1)C2)c1cccc(F)c1` (stereo not shown) [Example 141, 3-fluoro-N-[6-(1,2,3,4-tetrahydro-naphthalene-2-carbonyl)-5,6,7,8-tetrahydro-pyrido[4,3-d]pyrimidin-2-yl]-benzamide] the figure was 63.
